The record followed here is patent US20170088520A1, “DEUBIQUITINASE INHIBITORS” (PharmAkea, Inc., priority 2014, published 2017).

Common to all, as to format: cell-based
Experiment [1] deals with PARP cleavage in cells (NCI-H929, Z138, MM.1S, A-375). Kind of experiment: Analysis of PARP cleavage by Western blotting. Particulars: compound tested at 5 μM; Western blot. Here is the method:
(§1) Example B-2: Analysis of Md-1 Expression and PARP Cleavage
(§2) The ability of test compounds to decrease expression of the tumor promoting protein, Mcl-1, and to induce the inactivation/cleavage of the PARP protein is evaluated in cells (NCI-H929, Z138, MM.1S, A-375) by Western blotting. Cells are plated and treated as described in the HA-Ub-VS cell labeling assay (see above). A portion of the cleared lysate (15-50 μl) is run on an SDS-polyacrylamide gel to separate proteins and then transferred to nitrocellulose. After transfer to nitrocellulose, the proteins are detected by probing the blot with anti-Mcl-1 and anti-PARP antibodies followed by secondary antibodies coupled to IRdye 800 and IRdye 680 and visualization and quantitation using a LiCor Odyssey machine. Activity of the test compound is identified as a significant decrease in Mcl-1 expression relative to the vehicle treated cells and to the appearance of a cleaved fragment of PARP relative to the vehicle-treated cells.
(§3) The following compounds were tested in the above assays at 5 μM: […]
For orientation: In western blotting, separated proteins are transferred to a membrane and probed.

Experiment [2] has as its target T1, DUB activity in cells (NCI-H929, Z138, MM.1S, A375) (Homo sapiens, UniProt Q93008).
T1 construct: endogenous in cells; host or cells: NCI-H929, Z138, MM.1S, A375
Kind of experiment: HA-Ubiquitin-Vinylsulfone (HA-Ub-VS) cell labeling assay. Particulars: compound tested at 5 μM; HA-Ub-VS labeling of USP9x in cells. As to the method:
Example B-1: HA-Ubiqutin-Vinylsulfone (HA-Ub-VS) Cell Labeling
Inhibitition of DUB activity is measured in cells (NCI-H929, Z138, MM.1S, A375) using a hemaglutinin-ubiquitin-vinylsulfone (HA-Ub-VS) labeling assay. Briefly, 1-2×10^6 cells are plated in 12-well plates in 1 ml complete growth media and 250 μl of test compound in 0.5% dimethylsulfoxide (or DMSO control) is added to each well. Plates are incubated at 37° C., 5% CO2 for 2-6 hours before cells are harvested into eppendorf tubes, washed once in PBS and resuspended in 100 μl cold lysis buffer (50 mM Tris pH 8, 150 mM NaCl, 0.5% NP-40, 2 mM phenylmethylsulfonyl fluoride and complete protease inhibitor tablet). Resupended cells are frozen on dry ice, then thawed and incubated on ice for 15 minutes. Tubes are centrifuged for 10 minutes at 14,000 rpm at 4° C. and the cleared supernatants transferred to clean tubes. […] The samples are incubated 15-60 min at 37° C. before the addition of SDS gel loading buffer. Proteins are separated by SDS-PAGE, transferred to nitrocellulose and the blot probed with anti-HA antibody and anti-β-actin antibodies. The HA and β-actin antibodies are detected using secondary antibodies coupled to IRdye 800 or IRdye 680 and visualized and quantitated using the LiCor Odyssey machine.
as §3

Experiment [3] concerns Mcl-1 expression in cells (NCI-H929, Z138, MM.1S, A-375). Description: Analysis of Mcl-1 expression by Western blotting. The conditions noted are these: compound tested at 5 μM; Western blot. As to the method: as §1, §2, §3

T1 sequence (Q93008 whole entry): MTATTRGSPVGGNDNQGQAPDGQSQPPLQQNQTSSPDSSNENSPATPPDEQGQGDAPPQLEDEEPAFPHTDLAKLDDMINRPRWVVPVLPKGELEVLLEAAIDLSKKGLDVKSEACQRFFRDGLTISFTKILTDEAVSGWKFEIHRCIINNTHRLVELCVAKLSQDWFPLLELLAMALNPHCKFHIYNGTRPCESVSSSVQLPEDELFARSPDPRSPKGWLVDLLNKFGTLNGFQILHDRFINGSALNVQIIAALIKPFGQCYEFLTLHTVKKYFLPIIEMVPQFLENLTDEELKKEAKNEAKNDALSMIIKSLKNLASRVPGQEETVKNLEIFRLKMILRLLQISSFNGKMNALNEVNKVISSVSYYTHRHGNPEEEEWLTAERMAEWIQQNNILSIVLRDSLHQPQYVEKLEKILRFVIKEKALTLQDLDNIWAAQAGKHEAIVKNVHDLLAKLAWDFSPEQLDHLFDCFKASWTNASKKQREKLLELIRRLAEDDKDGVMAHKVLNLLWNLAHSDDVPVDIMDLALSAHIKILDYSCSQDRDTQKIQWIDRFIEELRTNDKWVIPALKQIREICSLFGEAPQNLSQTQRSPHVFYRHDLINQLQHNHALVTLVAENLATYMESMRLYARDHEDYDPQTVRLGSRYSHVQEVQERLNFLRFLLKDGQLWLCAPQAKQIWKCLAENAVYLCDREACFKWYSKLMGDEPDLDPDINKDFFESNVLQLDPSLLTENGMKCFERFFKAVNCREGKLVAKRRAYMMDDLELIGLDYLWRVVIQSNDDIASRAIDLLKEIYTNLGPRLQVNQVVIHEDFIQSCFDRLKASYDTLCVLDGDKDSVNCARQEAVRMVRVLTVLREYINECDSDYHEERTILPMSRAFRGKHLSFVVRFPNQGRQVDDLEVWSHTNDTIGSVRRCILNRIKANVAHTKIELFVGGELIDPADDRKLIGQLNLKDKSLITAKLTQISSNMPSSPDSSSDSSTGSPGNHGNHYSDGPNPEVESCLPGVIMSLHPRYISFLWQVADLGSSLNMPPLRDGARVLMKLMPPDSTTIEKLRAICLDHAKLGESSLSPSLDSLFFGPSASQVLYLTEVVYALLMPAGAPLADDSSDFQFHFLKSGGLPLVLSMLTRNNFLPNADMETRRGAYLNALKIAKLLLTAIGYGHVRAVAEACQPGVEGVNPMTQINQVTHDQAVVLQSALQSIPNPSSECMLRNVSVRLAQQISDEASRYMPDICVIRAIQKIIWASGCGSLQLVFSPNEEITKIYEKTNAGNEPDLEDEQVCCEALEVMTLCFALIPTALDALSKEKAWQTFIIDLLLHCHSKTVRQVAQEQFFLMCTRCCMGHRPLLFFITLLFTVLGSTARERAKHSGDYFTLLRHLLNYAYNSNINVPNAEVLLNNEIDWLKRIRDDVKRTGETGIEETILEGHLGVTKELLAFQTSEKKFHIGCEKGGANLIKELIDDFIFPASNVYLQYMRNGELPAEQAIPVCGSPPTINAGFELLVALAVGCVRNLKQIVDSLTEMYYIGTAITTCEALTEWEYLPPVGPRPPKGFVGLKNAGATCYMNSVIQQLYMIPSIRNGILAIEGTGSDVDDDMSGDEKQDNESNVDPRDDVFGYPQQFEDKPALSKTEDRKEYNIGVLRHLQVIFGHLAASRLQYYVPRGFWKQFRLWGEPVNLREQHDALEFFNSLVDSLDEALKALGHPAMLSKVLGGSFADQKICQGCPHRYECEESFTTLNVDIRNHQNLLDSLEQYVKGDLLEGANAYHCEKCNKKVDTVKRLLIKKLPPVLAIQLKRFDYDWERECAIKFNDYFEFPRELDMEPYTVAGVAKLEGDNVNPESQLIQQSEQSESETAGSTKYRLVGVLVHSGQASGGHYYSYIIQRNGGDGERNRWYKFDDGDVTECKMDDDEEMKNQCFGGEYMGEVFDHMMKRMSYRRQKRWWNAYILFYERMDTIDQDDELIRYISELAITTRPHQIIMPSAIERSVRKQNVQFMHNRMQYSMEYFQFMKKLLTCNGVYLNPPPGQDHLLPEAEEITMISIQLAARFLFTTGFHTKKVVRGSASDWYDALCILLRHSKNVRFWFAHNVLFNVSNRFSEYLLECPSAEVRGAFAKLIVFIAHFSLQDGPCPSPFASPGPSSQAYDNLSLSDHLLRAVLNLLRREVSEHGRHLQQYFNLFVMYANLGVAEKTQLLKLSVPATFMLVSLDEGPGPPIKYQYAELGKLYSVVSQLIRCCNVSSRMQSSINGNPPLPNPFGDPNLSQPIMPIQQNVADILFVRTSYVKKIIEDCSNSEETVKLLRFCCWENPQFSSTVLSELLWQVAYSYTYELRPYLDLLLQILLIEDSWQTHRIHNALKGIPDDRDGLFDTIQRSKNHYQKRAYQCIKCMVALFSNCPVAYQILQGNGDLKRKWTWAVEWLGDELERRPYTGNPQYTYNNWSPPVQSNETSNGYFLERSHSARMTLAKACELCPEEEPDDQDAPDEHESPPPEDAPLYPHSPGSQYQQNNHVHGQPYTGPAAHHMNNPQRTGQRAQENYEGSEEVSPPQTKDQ

With `N#C/C(=C\c1cccc(Br)n1)C(=O)NC1(c2ccccc2)CCOC1` (stereo not drawn) [Compound 80, (E)-3-(6-bromopyridin-2-yl)-2-cyano-N-(3-phenyltetrahydrofuran-3-yl)acrylamide], in experiment [1], the “PARP cleavage % Inhibition” value is listed as “D (D is <25% inhibition)”. The inhibition at 5 µM in experiment [2] and in experiment [3] was under 25% throughout.
Consider `CC(C)(C)OC(=O)c1cc(-c2cccc(/C=C(\C#N)C(=O)NC3(c4ccccc4)CCCC3)n2)cnc1Cl` [Compound 49], for which the “PARP cleavage % Inhibition” value in experiment [1] is “A (A is ≧75% inhibition)”. In addition, the inhibition at 5 µM in experiment [2] and in experiment [3] was at least 75% each time.
With `Cn1cc(-c2ccc(C3(NC(=O)/C(C#N)=C/c4ncc(Br)cc4Br)CCCC3)cc2)cn1` [Compound 77, (E)-2-cyano-3-(3,5-dibromopyridin-2-yl)-N-(1-(4-(1-methyl-1H-pyrazol-4-yl)phenyl)cyclopentyl)acrylamide], the “PARP cleavage % Inhibition” value in experiment [1] is on record as “B (B is 50% to 75% inhibition)”. Besides, the inhibition at 5 µM in experiment [2] and in experiment [3] was 50 to 75% throughout.
On to `CC(C)(C)OC(=O)c1cccc(C2(NC(=O)/C(C#N)=C/c3ncc(Br)cc3Br)CCCC2)c1` [Compound 52, (E)-tert-butyl 3-(1-(2-cyano-3-(3,5-dibromopyridin-2-yl)acrylamido)cyclopentyl)benzoate], for which the “PARP cleavage % Inhibition” value in experiment [1] is on record as “D (D is <25% inhibition)”. Further, the inhibition at 5 µM in experiment [2] and in experiment [3] was under 25% each time.
For the compound `COc1ccc(COc2ccc(C3(NC(=O)/C(C#N)=C/c4cccc(Br)n4)CCCC3)cc2)cc1` [Compound 72, (E)-3-(6-bromopyridin-2-yl)-2-cyano-N-(1-(4-((4-methoxybenzyl)oxy)phenyl)cyclopentyl)acrylamide], in experiment [1], the “PARP cleavage % Inhibition” value was “A (A is ≧75% inhibition)”. For the same compound, the inhibition at 5 µM in experiment [2] was 50 to 75%; in experiment [3], at least 75%.
The corresponding values for `CN(C(=O)/C(C#N)=C/c1cccc(Br)n1)C1(c2ccccc2)CCCC1` [Compound 2-82, (E)-3-(6-bromopyridin-2-yl)-2-cyano-N-methyl-N-(1-phenylcyclopentyl)acrylamide] are “A (A is ≧75% inhibition)”, 50 to 75% and at least 75%.
For `CC(=O)OCc1ccc(C2(NC(=O)/C(C#N)=C/c3cccc(Br)n3)CCCC2)cc1` [Compound 87, (E)-4-(1-(3-(6-bromopyridin-2-yl)-2-cyanoacrylamido)cyclopentyl)benzyl acetate] the same measures were “A (A is ≧75% inhibition)”, 25 to 50% and 50 to 75%.
The corresponding values for `N#C/C(=C\c1cccc(-c2cccnc2)n1)C(=O)NC1(c2ccccc2)CCCC1` [Compound 30, (E)-3-([2,3′-bipyridin]-6-yl)-2-cyano-N-(1-phenylcyclopentyl)acrylamide] are “A (A is ≧75% inhibition)”, 25 to 50% and 25 to 50%.
As for `N#C/C(=C\c1ncc(Br)cc1Br)C(=O)NC1(c2ccc(C(F)(F)F)cc2)CCCC1` [Compound 19, (E)-2-Cyano-3-(3,5-dibromopyridin-2-yl)-N-(1-(4-(trifluoromethyl)phenyl)cyclopentyl) acrylamide], the “PARP cleavage % Inhibition” value in experiment [1] is reported as “A (A is ≧75% inhibition)”. Moreover, the inhibition at 5 µM in experiment [2] and in experiment [3] was at least 75% in each case.
As for `N#C/C(=C\c1cccc(C#CCN2CCOCC2)n1)C(=O)NC1(c2ccccc2)CCCC1` [Compound 55, (E)-2-cyano-3-(6-(3-morpholinoprop-1-yn-1-yl)pyridin-2-yl)-N-(1-phenylcyclopentyl)acrylamide], the “PARP cleavage % Inhibition” value in experiment [1] was “A (A is ≧75% inhibition)”. Also, the inhibition at 5 µM was 25 to 50% in experiment [2] and under 25% in experiment [3].
For `N#C/C(=C\c1cccc(C#CC2(O)CCCC2)n1)C(=O)NC1(c2ccccc2)CCCC1` [Compound 45] the same measures were “A (A is ≧75% inhibition)”, 50 to 75% and at least 75%.
As to `N#C/C(=C\c1cccc(C#CCn2cccn2)n1)C(=O)NC1(c2ccncc2)CCCC1` [Compound 3-4, (E)-3-(6-(3-(1H-pyrazol-1-yl)prop-1-yn-1-yl)pyridin-2-yl)-2-cyano-N-(1-(pyridin-4-yl)cyclopentyl)acrylamide], the “PARP cleavage % Inhibition” value in experiment [1] is given as “B (B is 50% to 75% inhibition)”. In addition, the inhibition at 5 µM in experiment [2] and in experiment [3] was under 25% in each case.
With `N#C/C(=C\c1cccc(-c2ccc(C(F)(F)F)nc2)n1)C(=O)NC1(c2ccccc2)CCCC1` [Compound 64, (E)-2-cyano-N-(1-phenylcyclopentyl)-3-(6′-(trifluoromethyl)-[2,3′-bipyridin]-6-yl)acrylamide], in experiment [1], the “PARP cleavage % Inhibition” value is listed as “A (A is ≧75% inhibition)”. Besides, the values for the inhibition at 5 µM in experiment [2] and in experiment [3] were 50 to 75% and at least 75%, respectively.
The corresponding values for `N#C/C(=C\c1ncc(Br)cc1Br)C(=O)NC1(c2cccc(Cl)c2)CCCC1` [Compound 20, (E)-N-(1-(3-Chlorophenyl)cyclopentyl)-2-cyano-3-(3,5-dibromopyridin-2-yl)acrylamide] are “A (A is ≧75% inhibition)”, at least 75% and at least 75%.
For `N#C/C(=C\c1cccc(Br)n1)C(=O)NC1(c2ccccc2)CCC1` [Compound 3, (E)-3-(6-Bromopyridin-2-yl)-2-cyano-N-(1-phenylcyclobutyl)acrylamide] the same measures were “B (B is 50% to 75% inhibition)”, under 25% and under 25%.
The corresponding values for `N#C/C(=C\c1cccc(Br)n1)C(=O)NC1(c2ccnc(Cl)c2)CCCC1` [Compound 3-6, (E)-3-(6-bromopyridin-2-yl)-N-(1-(2-chloropyridin-4-yl)cyclopentyl)-2-cyanoacrylamide] are “A (A is ≧75% inhibition)”, 50 to 75% and 50 to 75%.
In the case of `N#C/C(=C\c1cccc(Br)n1)C(=O)NC1(c2ccccc2)CC1` [Compound 2, (E)-3-(6-Bromopyridin-2-yl)-2-cyano-N-(1-phenylcyclopropyl)acrylamide], the “PARP cleavage % Inhibition” value in experiment [1] was “C (C is 25% to 50% inhibition)”. Also, the inhibition at 5 µM in experiment [2] and in experiment [3] was under 25% throughout.
Turning to `N#C/C(=C\c1ccc(Cl)c(Cl)c1)C(=O)NC1(c2ccccc2)CCCC1` [Compound 11, (E)-3-(3,4-Dichlorophenyl)-2-cyano-N-(1-phenylcyclopentyl)acrylamide], the “PARP cleavage % Inhibition” value in experiment [1] is on record as “B (B is 50% to 75% inhibition)”. In addition, the inhibition at 5 µM in experiment [2] and in experiment [3] was 25 to 50% in each case.
`N#C/C(=C\c1cccc(C2CC2)n1)C(=O)NC1(c2ccc(-c3cccnc3)cc2)CCCC1` [Compound 67, (E)-2-cyano-3-(6-cyclopropylpyridin-2-yl)-N-(1-(4-(pyridin-3-yl)phenyl)cyclopentyl)acrylamide]: the “PARP cleavage % Inhibition” value in experiment [1] was “A (A is ≧75% inhibition)”. Moreover, the inhibition at 5 µM in experiment [2] is 50 to 75%; in experiment [3], at least 75%.
The corresponding values for `N#C/C(=C\c1cccc(C#CCn2cccn2)n1)C(=O)NC1(c2ccccc2)CCCC1` [Compound 43, (E)-3-(6-(3-(1H-pyrazol-1-yl)prop-1-yn-1-yl)pyridin-2-yl)-2-cyano-N-(1-phenylcyclopentyl)acrylamide] are “A (A is ≧75% inhibition)”, at least 75% and at least 75%.
For `C=C(C)c1ccc(C2(NC(=O)/C(C#N)=C/c3ncc(Br)cc3Br)CCCC2)cc1` [Compound 63, (E)-2-cyano-3-(3,5-dibromopyridin-2-yl)-N-(1-(4-(prop-1-en-2-yl)phenyl)cyclopentyl)acrylamide] the same measures were “A (A is ≧75% inhibition)”, at least 75% and at least 75%.

As usually defined, the inhibition is the percentage by which the read-out fell short of the control. Low values mean little suppression, high ones strong suppression.
